These results are taken from paper PMC4564001 (Bioorganic & medicinal chemistry letters, 2015).

The structures appear in SMILES notation.

Series [1] is classed as in vitro ADME. Conditions: data not shown.
The format of series [2] is in vivo. Conditions: DPS vehicle.
The subject of a further series is neutrophil influx. Kind of series: Ozone rat model of pulmonary inflammation. It is filed as in vivo, Sprague-Dawley rats.
The format of series [3] is in vitro ADME, human. The following applies: 1 μM, 37°C, LC-MS/MS.
The next series is described as follows: Aqueous solubility. It is filed as physicochemical. Conditions: qualitative statement.

For the compound `O=C(Nc1ccc(F)cc1)c1ccc(SCc2cc(OC(F)(F)F)ccc2B(O)O)nc1` [Compound 6, 6-(2-boronic acid-5-trifluoromethoxy-benzylsulfanyl)-N-(4-fluoro-phenyl)-nicotinamide], in series [1], the “Stability in rat plasma (6 vs 7)” value was “no significant difference”. For the same compound, the “Rat PK AUC @ 1 mg/kg IV” value in series [2] is 5.40 µM·h. Besides, the “Reduction of neutrophil influx (BALF)” value with neutrophil influx (single IV dose 1 mg/kg at t = 0, 1 ppm ozone 4 hours, BALF at 24 hours) is on record as “modest reduction in neutrophil influx”. Further, in series [3], the “Human Plasma stability (% remaining) 1 hr” value amounted to 62 % remaining, the “Human Plasma stability (% remaining) 4 hr” value was determined as 34 % remaining and the “Human Plasma stability (% remaining) 24 hr” value is given as 2 % remaining.

In the case of `O=C(Nc1ccc(F)cc1)c1cnc(N(Cc2ccccc2)Cc2ccc(B(O)O)cn2)nc1` [Compound 7, (2-{(Benzyl)[(5-boronic acid-2-pyridyl)methyl]amino}-5-pyrimidinyl)(4-fluorophenylamino)formaldehyde], the “Stability in rat plasma (6 vs 7)” value in series [1] was “no significant difference”. In the series on neutrophil influx (single IV dose 1 mg/kg, ozone model, side-by-side with 6), the “Effectiveness at reducing neutrophil influx relative to 6” value was “twice as effective”. In series [3], the “Human Plasma stability (% remaining) 1 hr” value was determined as 90 % remaining, the “Human Plasma stability (% remaining) 4 hr” value is given as 71 % remaining and the “Human Plasma stability (% remaining) 24 hr” value is 62 % remaining.

As for `CN(Cc1ccc(B(O)O)cn1)c1ccc(C(=O)Nc2ccc(F)cc2)cn1` [Compound 22], the Aqueous solubility result in the series “Aqueous solubility” is listed as “improved aqueous solubility”.

On to `CN(Cc1ccc(B(O)O)cn1)c1ncc(C(=O)Nc2ccc(F)cc2)cn1` [Compound 23], for which the Aqueous solubility entry in the series “Aqueous solubility” was “improved aqueous solubility”.
